Laboratory results reported in US20080310991A1, “Perishable-fruit-bearing cut-limb preservation and distribution method, coating and shipping container therefor” (State of Oregon, acting by and through the State Board of …, priority 2007, published 2008).

Key:
Assay type in all cases: in vivo, Malus silvestris L. var. domestica Borkh.
[1] = system: Rome Beauty apples cut-limbs; assay: Ascorbic acid treatment, visual quality during storage; conditions: for Fruit visual quality / Leaves Symptom / Leaves visual quality: Rome Beauty apples, ASA 0.1%, 30 mL, packaged, 20° C.
Method: (§1) The cut-limbs without 1-MCP treatment, after twenty-three and forty-two days of cold storage, were then transferred to room temperature (20° C.), and treated with the following five treatments: bagging, water dipping, bagging plus dipping, bagging […] the control. For the ascorbic acid dipping/abscisic acid spraying experiment, the following four treatments were carried out: ascorbic acid (0.1%) dipping only, coating with an abscission-inducing agent (ABA) such as 0.001% by volume (10 ppm) of abscisic acid added only, 0.1% by volume of ascorbic acid dipping plus coating with ABA added, and the control only. All of the treatments included dipping or coating (or both) and packaging in the perforated polyethylene bags.
(§2) Visual quality of leaves was scored with the widely used scale of 9=excellent, fresh; 7=good; 5=fair, slight discoloration; 3=mild discoloration and dryness; and 1=severe discoloration and dryness. Sensory quality of fruit was scored using a scale of 9=pleasant, fresh; 7=good; 5=bland, faint taste; 3=unpleasant taste; and 1=inedible. For both scales, a score of 5 is generally considered in post-harvest studies to be the threshold level of acceptability.

[2] = system: Rome Beauty apples cut-limbs; assay: Ascorbic acid dipping/abscisic acid spraying experiment; conditions: packaged
Method: (§3) For Rome Beauty apples only, a long term storage experiment and an ascorbic acid dip solution/plant regulator spray experiment were also carried out. For the long-term storage experiment, sixty cut-limbs were harvested, packed in the perforated bags, and stored at 1° C. (nearly the freezing temperature of water). Half of the cut-limbs were treated with 0.0001% by volume (1 ppm) of 1-methylcyclopropene (1-MCP) at 1° C. for twenty-four hours before storage. […] It is possible, however, that MCP treatment would be beneficial in other applications, e.g. with different fruit types, varieties, cultivars, etc.
as §1

[3] = system: Rome Beauty apple-bearing cut-limbs; assay: Long-term storage experiment with 1-MCP treatment; conditions: 1 ppm 1-MCP at 1° C. for twenty-four hours
Method: as §3

[4] = system: cut-limbs of Golden Delicious apple; assay: Citric acid immerging, visual quality of cut-limbs; conditions: 0.5% CA, 30 mL, packaged, 20° C.
From the text: as §2

[5] = 0.1% ascorbic acid dip solution
[6] = 10 ppm abscisic acid in the edible coatings

In the case of `O=C1O[C@H]([C@@H](O)CO)C(O)=C1O` [ASA, ascorbic acid], the Fruit visual quality ([1]; day 1) was 9.0 a, the “Leaves Symptom” value ([1]; day 1) was “Normal” and the Leaves visual quality ([1]; day 1) was 8.5 a. The Fruit visual quality ([1]; day 2) was 9.0 a, the “Leaves Symptom” value ([1]; day 2) was “Normal” and the Leaves visual quality ([1]; day 2) was 8.6 a. The Fruit visual quality ([1]; day 3) was 9.0 a, the “Leaves Symptom” value ([1]; day 3) was “Normal” and the Leaves visual quality ([1]; day 3) was 8.3 a. The Fruit visual quality ([1]; day 4) was 9.0 a, the “Leaves Symptom” value ([1]; day 4) was “Normal” and the Leaves visual quality ([1]; day 4) was 8.3 a. The Fruit visual quality ([1]; day 5) was 9.0 a, the “Leaves Symptom” value ([1]; day 5) was “Normal” and the Leaves visual quality ([1]; day 5) was 8.4 a. The Fruit visual quality ([1]; day 6) was 9.0 a, the Leaves visual quality ([1]; day 6) was 8.2 a and the Fruit visual quality ([1]; day 7) was 8.5 a. For the same molecule, the Leaves visual quality ([1]; day 7) was 8.0 a, the “Color and luster (FIG. 3C)” value ([1]; after seven days stored with water dipping and packaging, vs no-acid) was “visibly better color and luster” and the “Shelf-life of the cut-limbs” value [2, 5] was “increased”. For the same molecule, the Water loss [2, 5] was “decreased”.
For `CC1=CC1` [1-MCP, 1-methylcyclopropene], the Fruit appearance ([3]; Rome Beauty cut-limbs) was “normal appearance”, the “Leaves showing brown-black burn symptoms” value ([3]; Rome Beauty cut-limbs) was “approximately 68%” and the “Phytotoxicity to the leaves” value ([3]; after four days of storage at 1° C.) was “severe phytotoxicity”.
With `CC1=CC(=O)CC(C)(C)[C@@]1(O)/C=C/C(C)=C\C(=O)O` [abscisic acid] the “Shelf-life of the cut-limbs” value [2, 6] was “increased” and the Water loss [2, 6] was “decreased”.
`O=C(O)CC(O)(CC(=O)O)C(=O)O` [CA, citric acid] showed a Fruit visual quality ([4]; day 1) of 9.0, a Leaves visual quality ([4]; day 1) of 8.6 and a Fruit visual quality ([4]; day 2) of 9.0. It also gave a Leaves visual quality ([4]; day 2) of 8.4, a Fruit visual quality ([4]; day 3) of 9.0 and a Leaves visual quality ([4]; day 3) of 8.3. It also gave a Fruit visual quality ([4]; day 4) of 8.5, a Leaves visual quality ([4]; day 4) of 7.9 and a Fruit visual quality ([4]; day 5) of 8.5. It also gave a Leaves visual quality ([4]; day 5) of 8.4, a Fruit visual quality ([4]; day 6) of 8.5 and a Leaves visual quality ([4]; day 6) of 8.2. The Fruit visual quality ([4]; day 7) was 8.5 and the Leaves visual quality ([4]; day 7) was 8.0.
